Entries after “also recorded” stand apart in the source; their conditions may differ. Where a SMILES comes first, the peptide text is derived from it. Where no end group is shown, it is not given here. [ ]: non-standard residue; d: D form.
Assays:
[1] = test system: L,D-transpeptidase of E. faecium M512 (Ldtfm); test: Standard radioactive exchange assay (Ac2-L-Lys-D-Ala and D-[14C]Ala); type: biochemical, Enterococcus faecium; conditions: for use as donor: formation of radioactive peptides with D-[14C]Ala as the acceptor: 3 μg Ldtfm, 60 min, donor 1-5 mM
Source text: (§1) FIG. 9 (Ex FIG. 2). Identification and characterization of the L,D-transpeptidase of E. faecium M512. (A) Purification of the L,D-transpeptidase from an E. faecium M512 extract (lane 1) led to partial purification of a 48-kDa protein (lane 2). (B) The open reading frame for the 48-kDa protein was identified based on N-terminal sequencing ([…] [SEQ ID No 20], underlined) and similarity searches in the partial genome sequence of E. faecium. The partially purified 48-kDa protein corresponded to a proteolytic fragment since the sequence encoding its N-terminus was not preceded by a translation initiation codon. The upstream sequence contained a single likely translation initiation site (ACTTAAggag[…]atg [SEQ ID No 21]), consisting of an ATG initiation codon preceded by a putative ribosome binding site (lower case). The proteolytic cleavage removed the first 118 residues of the protein, including a cluster of hydrophobic residues at positions 13 to 28 (italicized), which could correspond to a membrane anchor. The C-terminus of Ldtfm (positions 340 to 466; bold) was related to a family of 341 sequences from eubacteria appearing in the Protein Families Database of Alignments under the pfam accession number PF03734. Ser439 and Cys442 (asterisks) are potential catalytic residues. (C) The portion of the open reading frame encoding the soluble protein partially purified form the E. faecium extract (positions 119 to 466) was cloned into E. coli and Ldtfm was purified with an overall yield of 3 mg per liter of culture. (D) The purified protein was active in an exchange reaction which assays for the capacity of the enzyme to catalyze cleavage of the L-Lys-D-Ala peptide bond of the model donor dipeptide substrate N^α,N^ε-diacetyl-L-lysyl-D-alanine (Ac2-L-Lys-D-Ala) and formation of a peptide bond between Ac2-L-Lys and D-[^14C]Ala. […] (F) The exchange assay was also performed with non-radioactive 2-amino and 2-hydroxy acids based on detection of the products by mass spectrometry and determination of their structure by tandem mass spectrometry, as exemplified by the fragmentation of Ac2-L-Lys-D-Met (m/z of 362.24). Loss of a C-terminal D-Met and of additional H2O led to ions at m/z 213.14 and 185.14, respectively. Ions at m/z 84.10 and 126.11 correspond to the immonium of L-Lys and its acetylated form, respectively.
Preferably, the L,D-transpeptidase activity is assessed by performing a standard exchange assay that is based on incubation of non-radioactive Ac2-L-Lys-D-Ala and D-[^14C]Ala and determination of Ac2-L-Lys-D[^14C]Ala formed by the L,D-transpeptidase catalytic activity, such as disclosed by Mainardi et al. (J. L. Mainardi et al., J. Biol. Chem. 277, 35801 (2002)) as well as in the examples herein.
In an illustrative embodiment of said standard exchange assay, a reaction mixture is provided, which reaction mixture contains (i) purified L,D-transpeptidase, (ii) Ac2-L-Lys-D-Ala, (iii) D-[^14C]Ala and (iv) optionally the candidate inhibitor compound. Then the enzyme reaction is performed until completion, generally during a time period of […], most preferably […], at a temperature range comprised between 36° C. and 38° C., advantageously between 36.5° C. and 37.5° C., most preferably at 37° C. Then, the enzyme reaction is stopped, for example by boiling the resulting reaction product mixture for a time period sufficient to inactivate the enzyme, such as for a period of time ranging from 3 min to 20 min, most preferably a period of time of about 15 min.
Then, the resulting reaction product mixture is centrifuged and a sample collected from the supernatant of centrifugation is analysed by chromatography, preferably by carrying out a reverse phase high-pressure liquid chromatography (rpHPLC), most preferably with isocratic elution.
Detection of the labeled reaction product resulting from the L,D-transpeptidase catalytic activity may be performed simultaneously with said chromatographic step. […]

[2] = test system: Ldtfm; test: Exchange assay with non-radioactive 2-amino and 2-hydroxy acid acceptors, products detected by mass spectrometry; type: biochemical, Enterococcus faecium; conditions: for Product Relative intensity (%): ionic current intensity (product/product + substrate), donor Ac2-L-Lys-D-Ala 0.3 mM, acceptor 0.3 mM, Ldtfm (3 g), 1 h at 37° C.; for use as acceptor substrate in the exchange reaction with Ac2-L-Lys-D-Ala as the donor: result in words
Source text: as §1
To gain insight in the activity of Ldtfm, various 2-amino and 2-hydroxy acids were tested as potential acceptor substrates (Table 2) in an exchange reaction using the model dipeptide substrate Ac2-L-Lys-D-Ala as the donor (FIG. 9F). […] Hydrolysis of the C-terminal D-Ala of Ac2-L-Lys-D-Ala was not detected in the presence of a suitable acceptor substrate, indicating a biosynthetic function for Ldtfm, in contrast to the previously characterized L,D-carboxypeptidase involved in peptidoglycan recycling in E. coli (Templin et al., 1999).

[3] = target: T1, D-aspartate ligase (membrane or cytoplasmic extracts of E. faecium D359V8) (Enterococcus faecium, UniProt H8L902); test: D-aspartate ligase assay (in vitro addition of D-aspartate onto UDP-MurNac-pentapeptide); type: biochemical; conditions: 60 μg membrane or cytoplasmic extracts, 2 hours at 37° C.
T1 construct: membrane or cytoplasmic extracts (60 μg); endogenous in cells; host or cells: Enterococcus faecium D359V8, crude membrane and cytoplasmic extracts
Description: FIG. 2. […] Crude cytoplasmic extract (60 μg of protein) of E. faecium D359V8 were incubated for 2 h with UDP-MurNac-pentapeptide ([…]), D-[^14C]aspartic acid (0.11 mM, 55 mCi/mmol), ATP (20 mM) and MgCl2 (50 mM). D-[^14C]aspartic acid was separated from [^14C]UDP-MurNac-hexapeptide by descending paper chromatography. […] (+) presence of cytoplasmic extracts; (−) absence of crude extracts.
The assay was performed in a total volume of 25 μl containing Tris-Hcl (100 mM, pH 8.5), MgCl2 (50 mM), ATP (20 mM), D-[^14C]aspartic acid (0.11 mM, 55 mCi/mmol, Isobio, Fleurus, Belgium), UDP-MurNac-pentapeptide (0.15 mM) purified from S. aureus as previously described (Billot-Klein et al., 1997), and membrane or cytoplasmic extracts (60 μg). The reaction mixture was incubated 2 h at 37° C. and the reaction was stopped by boiling the samples for 3 min. […] The products of the reaction were also separated by reverse phase high-pressure liquid chromatography (rpHPLC) on a Hypersil C18 column ([…], 4.6×250 […], Interchrom, Montlugon, France) at a flow rate of 0.5 ml/min using isocratic elution (10 mM ammonium acetate, pH 5.0) and detected by the absorbance at 262 nm and liquid scintillation with a Radioflow Detector (LB508; Perkin Elmer, Courtaboeuf, France) coupled to the HPLC apparatus (L-62000A; Merck, Nogent-Sur-Marne, France). […]

[4] = test system: E. faecium M512; conditions: mutant E. faecium M512; cited from earlier work
[5] = test system: Ldtfm; test: In vitro transpeptidation (formation of dimers from monomeric muropeptides, mass spectrometry); type: biochemical, Enterococcus faecium; conditions: pool of three muropeptides, Ldtfm 3 μg, 2 h at 37° C.
Description: FIG. 10 (Ex FIG. 3). […] (A) Ldtfm was incubated with a pool of three monomeric muropeptides containing the disaccharide GlcNAc-MurNAc substituted by three different stem peptides. […] Tetrapeptide-iAsn, L-Ala-D-iGln-L-(M-D-iAsn)Lys-D-Ala; Tripeptide-iAsn, L-Ala-D-iGln-L-(M-D-iAsn)Lys; Tetrapeptide, L-Ala-D-iGln-L-Lys-D-Ala. (B) Fragmentation was performed on the muropeptide lactoyl dimer at m/z 1118.5 which was obtained by ammonium hydroxide treatment of the dimer with a monoisotopic mass of 1927.88. The treatment cleaved off the disaccharide and converted D-iAsn into D-iAsp. (C) Structure of the dimer and inferred fragmentation pattern. […]
To assay for in vitro transpeptidation, the L,D-transpeptidase (3 μg) was incubated with the momomeric muropeptides GlcNAc-MurNAc-L-Ala-D-iGln-L-(M-D-iAsn)Lys-D-Ala (25 nmoles), GlcNAc-MurNAc-L-Ala-D-iGln-L-(M-D-iAsn)Lys (5 nmoles) and GlcNAc-MurNAc-L-Ala-D-iGln-L-Lys-D-Ala (5 nmoles) for 2 h at 37° C. in 25 μl of 5 mM sodium phosphate buffer (pH 6.0). The reaction was stopped by boiling the sample for 3 min and the mixture was centrifuged (10,000×g, 2 min). […] For tandem mass spectrometry analysis, the remaining of the reaction mixture was treated with ammonium hydroxyde to cleave the ether link internal to MurNAc (Arbeloa et al., 2004). The conditions for fragmentation of the resulting lactoyl-peptides with N2 as the collision gas were as previously described (Arbeloa et al., 2004).

For CC(=O)NCCCC[C@H](NC(C)=O)C(=O)N[C@H](C)C(=O)O [Ac2-L-Lys-D-Ala, N^α,N^ε-diacetyl-L-lysyl-D-alanine] (Ac-Lys(Ac)-[dA]-OH), the “use as donor: formation of radioactive peptides with D-[14C]Ala as the acceptor” value (from here on “use as donor: formation”) [1] was “used as donors”.

With C[C@@H](O)C(=O)O [D-lactic acid] the “Product Relative intensity (%)” value [2] was 37% and the “use as acceptor substrate in the exchange reaction with Ac2-L-Lys-D-Ala as the donor” value [2] was “Formation of depsipeptides”.

In the case of O=C(O)C[C@@H](O)C(=O)O [D-malic acid], the “Product Relative intensity (%)” value [2] is reported as 10% and the “use as acceptor substrate in the exchange reaction with Ac2-L-Lys-D-Ala as the donor” value [2] is reported as “Formation of depsipeptides”.

For NCC(=O)O [Glycine], the “Product Relative intensity (%)” value [2] was 15%.

For N[C@@H](CC(=O)O)C(=O)O [L-[^14C]aspartate], the “formation of hexapeptide when D-[14C]aspartate is replaced” value [3] was “No hexapeptide was formed”.

In the case of CC(=O)N[C@H]1[C@@H](OP(=O)(O)OP(=O)(O)OC[C@H]2O[C@@H](n3ccc(=O)[nH]c3=O)[C@H](O)[C@@H]2O)O[C@H](CO)[C@@H](O)[C@@H]1O[C@H](C)C(=O)N[C@@H](C)C(=O)N[C@H](CCC(=O)N[C@@H](CCCCN)C(=O)N[C@H](C)C(=O)N[C@H](C)C(=O)O)C(=O)O [UDP-MurNAc-pentapeptide, UDP-N-acetylmuramyl-L-Ala-D-iGlu-L-Lys-D-Ala-D-Ala], the “use as donor: formation” value [1] is reported as “not detected”.

For CC1(C)S[C@@H]2[C@H](NC(=O)[C@H](N)c3ccccc3)C(=O)N2[C@H]1C(=O)O [ampicillin], the “inhibition of Ldtfm in the exchange assay” value ([1]; Ldtfm 3 μg, Ac2-L-Lys-D-Ala 0.3 mM, D-[14C]Ala 0.15 mM, various concentration of ampicillin) is listed as “absence of inhibition; also recorded: not inhibited” and the minimal inhibitory concentration [4] is listed as over 2000 µg/mL.

With “GlcNAc-MurNAc-L-Ala-D-iGln-L-(M-D-iAsn)Lys-D-Ala [tetrapeptide-iAsn]” the “use as donor in formation of dimers” value [5] was “formation of dimers”.

In the case of GlcNAc-MurNAc-L-Ala-D-iGln-L-Lys-D-Ala, the “use as acceptor in formation of dimers” value [5] is reported as “not used as an acceptor” and the “use as donor in formation of dimers” value [5] is reported as “formation of dimers”.

For “GlcNAc-MurNAc-L-Ala-D-iGlu-L-(N^ε-D-iAsn)Lys-D-Ala [GlcNAc-MurNAc-tetrapeptide-iAsn]”, the “use as donor: formation” value [1] was “used as donors”.

For “GlcNAc-MurNAc-L-Ala-D-iGlu-L-(N^ε-D-iAsn)Lys-D-Ala-D-Ala [GlcNAc-MurNAc-pentapeptide-iAsn]”, the “use as donor: formation” value [1] was “not detected”.

With “L-Ala-D-iGlu-L-Lys-D-Ala (A[diGlu]K[dA]) [tetrapeptide]” the “use as donor: formation” value [1] was “used as donors”.

For “L-Ala-D-iGlu-L-Lys-D-Ala-D-Ala [pentapeptide]”, the “use as donor: formation” value [1] was “not detected”.

For “N^α,N^ε-diacetyl-L-lysine-D-alanyl-D-alanine [Ac2-L-Lys-D-Ala-D-Ala]”, the “use as donor: formation” value [1] was “not detected”.

For “UDP-MurNAc-L-Ala-D-iGlu-L-Lys-D-Ala [UDP-MurNAc-tetrapeptide]”, the “use as donor: formation” value [1] was “used as donors”.

Reference: patent publication US20150094229A1, “METHODS FOR THE SCREENING OF ANT[…]” (priority 2005, published 2015)
